Experimental data: patent US20240336573A1, “COMPOUND FOR THE TREATMENT AND PROPHYLAXIS OF INFECTIOUS DISEASES” (Eberhard Karls Universität Tübingen Medizinische Fakultät, priority 2021, published 2024)

How the values were obtained:
[1] = target: T1, SurA (Escherichia coli, UniProt P0ABZ6); experiment: Luciferase-based SurA activity assay at the ELF (primary screen P1, dose response C2); type: biochemical, E. coli
Text: The biological function of SurA is to bind and to keep outer membrane proteins that have reached the periplasm in an unfolded but folding-competent state. The inventors' assay is based on this interaction and uses firefly Luciferase (fLuc) as a non-native substrate. […] This is exploited in the assay (FIG. 3). The loss of tertiary structure of fLuc leads to the exposure of binding sites for SurA. It is known that SurA binds selectively to a special group of substrates. These substrates have in common the specific patterns of hydrophobic amino acids that are highly enriched in the beta strands of integral outer membrane proteins. These motifs are present in OMPs of all Gram-negative bacteria and in fLuc as well. Upon mild heat treatment of fLuc and its subsequent partial unfolding, fLuc is accepted as a substrate by SurA. Of note, these intermediates served as reporter substrates to determine the activity of a […] folding chaperone. […] This interaction remains stable upon temperature reduction. Next, the temperature of the assay is reduced to room temperature and luciferase activity is subsequently measured by addition of Luciferin and ATP. In conditions without SurA, fLuc will refold into its active conformation resulting in a luminescence signal.
Of note, the SurA activity assay was performed similar at the ELF but with optimizations in regard of the higher throughput including the change of the plate format to 1536-wells. The SurA activity assay performed at the ELF contained the following steps (adapted from the QHL report provided by the ELF). First, SurA was thawed at RT and heat activated in a water bath. Next, the vial was taken out of the water bath and cooled down to RT for 30 min @ bench. Afterwards, the SurA concentration was adjusted in assay buffer to 2 μM. Noteworthy, the SurA solution was kept on ice. […] Finally, 2 μL substrate mix (180 μM Luciferin with 12 mM ATP) were added simultaneously to all wells using the Fluorometric Imaging Plate Reader (FLIPR) and the luminescence signal was measured immediately afterwards on the FLIPR (Gain 70,000). […]

[2] = target: luciferase (Photinus pyralis, UniProt P08659); experiment: Luciferase interference deselection assay (D1); type: biochemical; settings: DRC format
Text: Starting with approximately 400,000 compounds, a set of 3991 compounds was left for testing in dose response experiments. Due to acquisition of a lower assay window for part of the data obtained during the screening campaign of ELFSC17_02, the data-set was split into P1 and P2 for analysis in ActivityBase. For P1 the initially set criterion of Z-score ≥4 (˜4%) was used for selection of actives and for P2 this selection criterion was adjusted to effect ≥40% (Z-score ˜15). […] In order to reduce this total number of 4205 compounds to a maximum of 4000 compounds allowed to be ordered in serial dilutions for dose response experiments (i.e. 1% of 400,000), the criterion for P1 was changed to Z-score >4.3 gaining 3344 compounds. […] The confirmed actives of ELF program ELFSC17-02 were tested as serial dilutions in the primary assay and deselection assay to generate dose response curves (DRCs). The serial dilutions consisted of 7 equidistant concentration steps (20 μM to 27.4 nM) and were tested in the primary and in the deselection assay in duplo (n=2) in 1536-well format. […] For the luciferase interference deselection assay in DRC-format, luciferase was left out in the Max effect wells, mimicking a 100% effect situation and resulting in a decreased signal. Compounds showing a signal decrease larger than 5 times the standard deviation (Z-score >5) were identified as luciferase […]. […] The ActivityBase application (IDBS) was used to analyze the data and to calculate quality parameters like Z-prime and Signal to Background ratio (S/B). For all compounds the % effect was calculated for all seven concentrations. ActivityBase was also used to calculate the pEC50 and Hill Slope. […] For compounds where no curve was fitted but reached >50% effect at 20 μM the Fit_Max was locked at 100% effect. For compounds where no curve was fitted but reached 100% effect at 20 μM and descended to <50% at 27 nM the Fit_Min was locked at 0%. […] Based on the results of C2 and D1 a list of 383 compounds was created as the preliminary hits, which were evaluated with MST (01). […]

[3] = target: T1, SurA; experiment: nanoDSF of QHL compounds (Tycho); type: binding, E. coli; design: key: An increase of the inflection points in the nanoDSF experiments is indicated by (+); a decrease by (−); no changes with (none); ambiguity with a question mark (?); settings: re-evaluation; 100 μM compound, 2 μM SurA, 40 mM HEPES pH 7.4
Protocol: Nano Differential Scanning Fluorimetry (nanoDSF) measurements of the QHL (qualified hit list) compounds provided by the ELF were performed on a Tycho system (NanoTemper).

[4] = target: T1, SurA; experiment: nanoDSF thermal shift assay (Prometheus); type: binding, E. coli; design: key to nanoDSF pH 5 Ti#1 / nanoDSF pH 5 Ti#2 / nanoDSF pH 7.4 Ti#1 / nanoDSF pH 7.4 Ti#2: An increase of the inflection points in the nanoDSF experiments is indicated by (+); a decrease by (−); no changes with (none); ambiguity with a question mark (?); settings: for nanoDSF pH 7.4 Ti#1 / nanoDSF pH 7.4 Ti#2: 40 mM HEPES pH 7.4, 150 NaCl; for nanoDSF pH 5 Ti#1 / nanoDSF pH 5 Ti#2: 50 mM HAc pH 5; for Thermal stability of SurA as detected by nanoDSF: resynthesized compounds
Protocol: To this end, 5 μl of a 2 mM compound solution in DMSO were mixed with 95 μl of a 20 μM SurA solution. Technical triplicate measurements were performed on a Prometheus system (NanoTemper).

luciferase, sequence (P08659 whole entry): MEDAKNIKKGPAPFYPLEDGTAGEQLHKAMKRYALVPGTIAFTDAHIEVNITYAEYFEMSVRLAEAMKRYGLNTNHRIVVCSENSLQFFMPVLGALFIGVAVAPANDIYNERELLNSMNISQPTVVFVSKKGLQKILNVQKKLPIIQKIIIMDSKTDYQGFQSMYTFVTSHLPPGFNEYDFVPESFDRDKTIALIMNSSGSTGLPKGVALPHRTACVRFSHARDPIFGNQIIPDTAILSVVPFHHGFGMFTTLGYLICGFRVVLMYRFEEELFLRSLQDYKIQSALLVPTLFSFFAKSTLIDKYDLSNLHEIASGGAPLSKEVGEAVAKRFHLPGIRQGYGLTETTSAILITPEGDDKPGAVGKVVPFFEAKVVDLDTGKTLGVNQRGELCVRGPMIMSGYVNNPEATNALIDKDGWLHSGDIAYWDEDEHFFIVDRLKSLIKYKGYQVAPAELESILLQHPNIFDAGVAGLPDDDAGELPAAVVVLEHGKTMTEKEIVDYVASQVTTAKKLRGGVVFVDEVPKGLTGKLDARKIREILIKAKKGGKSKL
T1 sequence (P0ABZ6 21-428): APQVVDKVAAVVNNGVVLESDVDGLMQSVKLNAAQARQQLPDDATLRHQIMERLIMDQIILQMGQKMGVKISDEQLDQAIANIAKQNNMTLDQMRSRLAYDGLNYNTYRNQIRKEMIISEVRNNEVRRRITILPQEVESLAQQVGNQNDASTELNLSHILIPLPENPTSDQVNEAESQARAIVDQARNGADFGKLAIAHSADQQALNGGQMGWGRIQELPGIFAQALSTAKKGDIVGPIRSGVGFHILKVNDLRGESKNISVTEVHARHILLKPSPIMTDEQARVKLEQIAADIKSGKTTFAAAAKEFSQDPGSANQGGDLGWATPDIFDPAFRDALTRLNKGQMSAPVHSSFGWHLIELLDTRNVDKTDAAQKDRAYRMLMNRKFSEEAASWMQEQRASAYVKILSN

SMILES | DRC (C2) pIC50 ([1]; 7 concentration steps 20 μM to 27.4 nM, n=2) | Primary assay (P1) % Effect ([1]; ELF library screen, 1536-well) [%] | Primary assay (P1) Z-score ([1]; ELF library screen, 1536-well) | Deselection (D1) pIC50 [2] | nanoDSF(Tycho) Ti#1 [3] | nanoDSF(Tycho) Ti#2 [3] | nanoDSF pH 7.4 Ti#1 [4] | nanoDSF pH 7.4 Ti#2 [4] | nanoDSF pH 5 Ti#1 [4] | nanoDSF pH 5 Ti#2 [4] | Thermal stability of SurA as detected by nanoDSF [4] | Deselection (D1) pIC50 ([2]; listed as QHL-10) | IC50 ([2]; read-out: Deselection (D1) pIC50 (converted)) [µM]
CN(C)c1ccc(-c2nc3cc(NC(=O)Cn4cc5ccccc5n4)ccc3[nH]2)cc1 [QHL-24] | 5.45 | 151 | 191.97 | 4.42 | none | + | none | − | none | + | affected the thermal stability of SurA |  | 
NC(=O)c1nc(Cc2ccc(OCC(=O)O)cc2)[nH]c1NC(=O)c1ccc(-c2ccccc2)cc1 [Compound 2a, 2-(4-((5-([1,1′-biphenyl]-4-carboxamido)-4-carbamoyl-1H-imidazol-2-yl)methyl)phenoxy)acetic acid] |  |  |  |  | ? | + | none | − | + | − | affected the thermal stability of SurA | 5.16 | 6.92
